Test results taken from patent US4736067A, “New dimethyl derivatives of 3-nitro-4-aminoaniline, process for their preparation and their use for dyeing keratinic fibers” (L'Oreal, priority 1983, dated 1988).

Assays:
[1] = Harmlessness / toxicity
[2] = Stability / storage of the nitro colorant in (oxidation) dyeing composition or reducing alkaline medium; format: physicochemical; conditions: oxidation dye composition with ammonia and sodium bisulphite (Examples 26, 27)

Row | stability of the nitro colorant in the liquid composition [2] | Structure (SMILES) | harmlessness [1]
1 | stable in the liquid composition | Cc1c(N)cc([N+](=O)[O-])c(N)c1C [5,6-dimethyl-3-nitroparaphenylenediamine] | particularly harmless
2 | – | Cc1c(NCCO)cc([N+](=O)[O-])c(N)c1C [4-amino-5,6-dimethyl-3-nitro-N-β-hydroxyethylaniline] | particularly harmless
3 | preserved | Cc1cc(N)c([N+](=O)[O-])c(C)c1N [2,6-dimethyl-3-nitroparaphenylenediamine] | particularly harmless
4 | – | CNc1c(C)cc(N)c([N+](=O)[O-])c1C [4-amino-2,6-dimethyl-3-nitro-N-methylaniline] | particularly harmless
5 | – | Cc1c(NCC(O)CO)cc([N+](=O)[O-])c(N)c1C (stereo not drawn) [4-amino-5,6-dimethyl-3-nitro-N-β,γ-dihydroxypropylaniline] | particularly harmless
6 | – | CCN(CC)CCNc1cc([N+](=O)[O-])c(N)c(C)c1C [4-amino-5,6-dimethyl-3-nitro-N-(β-diethylaminoethyl)aniline] | particularly harmless
7 | – | Cc1c(NCCN)cc([N+](=O)[O-])c(N)c1C [4-amino-5,6-dimethyl-3-nitro-N-β-aminoethylaniline] | particularly harmless
